Results taken from patent US11447502B2, “Antibacterial agents: dual-targeted RNA polymerase inhibitors” (priority 2018, dated 2022).
In brackets after ≈: the same amount, converted by molar mass.

Legend:
M. avium ATCC 25291 = assay: Microplate Alamar Blue MIC assay, M. avium; assay type: cell-based, Mycobacterium avium
M. tuberculosis H37Rv = assay: Microplate Alamar Blue MIC assay, M. tuberculosis H37Rv; assay type: cell-based; settings: Mycobacterium tuberculosis, read-out: antibacterial activity M. tuberculosis H37Rv MIC

Q: `CO[C@H]1/C=C/O[C@@]2(C)Oc3c(C)c(O)c4c(O)c(c(/C=N/N5CCN(c6ccc(F)cc6NC(=O)C(Cc6ccccc6)NC(=O)c6ccccc6F)CC5)c(O)c4c3C2=O)NC(=O)/C(C)=C\C=C\[C@H](C)[C@H](O)[C@@H](C)[C@@H](O)[C@@H](C)[C@H](OC(C)=O)[C@@H]1C` (some centres unmarked) [IX-398, Rifamycin SV—(CHN)—IX-214 Conjugate] was tested. Which “antibacterial activity M. avium ATCC 25291” value (M. avium ATCC 25291) did it give?
A: The value was 0.098.

Q: And the MIC (M. tuberculosis H37Rv)?
A: Its MIC is 0.39 µg/mL (≈ 0.328 µM).

Q: Which “antibacterial activity M. avium ATCC 25291” value (M. avium ATCC 25291) does the source give for `CO[C@H]1/C=C/O[C@@]2(C)Oc3c(C)c(O)c4c(O)c(c(/C=N/N5CCN(CCN6CCN(c7ccc(F)cc7NC(=O)C(Cc7ccccc7)NC(=O)c7ccccc7F)CC6)CC5)c(O)c4c3C2=O)NC(=O)/C(C)=C\C=C\[C@H](C)[C@H](O)[C@@H](C)[C@@H](O)[C@@H](C)[C@H](OC(C)=O)[C@@H]1C` (some centres unmarked) [IX-403, Rifamycin SV—(CHN)—IX-402 Conjugate] here?
A: Its value is 3.13.

Q: What about the MIC (M. tuberculosis H37Rv) of the same compound?
A: The MIC was 3.13 µg/mL (≈ 2.41 µM).

Q: With `[2H]C([2H])(c1ccccc1)C(NC(=O)c1ccccc1F)C(=O)Nc1cc(F)ccc1N1CCN(/N=C/c2c3c(O)c4c(O)c(C)c5c(c4c2O)C(=O)[C@@](C)(O/C=C/[C@H](OC)[C@@H](C)[C@@H](OC(C)=O)[C@H](C)[C@H](O)[C@H](C)[C@@H](O)[C@@H](C)/C=C/C=C(/C)C(=O)N3)O5)CC1` (some centres unmarked) [IX-404a, Rifamycin SV—(CHN)—IX-370a Conjugate] as the compound, how does the “antibacterial activity M. avium ATCC 25291” value (M. avium ATCC 25291) read?
A: The value was 0.048.

Q: And the MIC (M. tuberculosis H37Rv)?
A: Its MIC is 0.049 µg/mL (≈ 0.0412 µM).

Q: For `[2H]C([2H])(c1ccccc1)C(NC(=O)c1ccccc1F)C(=O)Nc1cc(F)ccc1N1CCN(C(=O)COc2cc3c(O)c4c(O)c(C)c5c(c24)C(=O)[C@@](C)(O/C=C/[C@H](OC)[C@@H](C)[C@@H](OC(C)=O)[C@H](C)[C@H](O)[C@H](C)[C@@H](O)[C@@H](C)/C=C/C=C(/C)C(=O)N3)O5)CC1` (some centres unmarked) [IX-408a, Rifamycin B—IX-370a Conjugate], which “antibacterial activity M. avium ATCC 25291” value (M. avium ATCC 25291) is on record?
A: Its value is 0.78.

Q: And the MIC (M. tuberculosis H37Rv)?
A: Its MIC is 0.2 µg/mL (≈ 0.166 µM).

Q: Which MIC (M. tuberculosis H37Rv) does the source give for `[2H]C([2H])(c1ccccc1)C(NC(=O)c1ccccc1F)C(=O)Nc1cc(F)ccc1N1CCN(/N=C/C2=C3NC(=O)/C(C)=C\C=C\[C@H](C)[C@H](O)[C@@H](C)[C@@H](O)[C@@H](C)[C@H](OC(C)=O)[C@H](C)[C@@H](OC)/C=C/O[C@@]4(C)Oc5c(C)c(O)c(c(c5C4=O)C2=O)C3=O)CC1` (some centres unmarked) [IX-476a, Rifamycin S—(CHN)—IX-370a Conjugate] here?
A: The MIC was 0.2 µg/mL (≈ 0.168 µM).

Q: Which “antibacterial activity M. avium ATCC 25291” value (M. avium ATCC 25291) does the source give for `CO[C@H]1/C=C/O[C@@]2(C)Oc3c(C)c(O)c4c(O)c(c(/C=N/N5CCN(C)CC5)c(O)c4c3C2=O)NC(=O)/C(C)=C\C=C\[C@H](C)[C@H](O)[C@@H](C)[C@@H](O)[C@@H](C)[C@H](OC(C)=O)[C@@H]1C` [rifampin, reference compound] here?
A: The value was 0.024.

Q: And the MIC (M. tuberculosis H37Rv)?
A: Its MIC is 0.049 µg/mL (≈ 0.0595 µM).
